Source: patent US6509367B1 (priority 2001, dated 2003)
“Also recorded” adds a separate entry of the source. Where a name gives a salt, the structure may show the parent alone. Read-outs that look alike come from different tables or passages of the source. Marks after values point to notes of the source that are not given here.

Assays:
[1] = test system: mice; details: cited from earlier work
[2] = test system: mice; details: cited from earlier work; remark: listed apart in the source
[3] = test system: mice; details: cited from earlier work; remark: listed apart in the source
[4] = test system: mice; experiment: Rectal temperature (hypothermia) in mice, compound alone (agonism test); assay type: in vivo; details: for ED50: Mus musculus, iv
Procedure: (§1) Male ICR mice (25-32 g), purchased from Harlan (Dublin, Va.), were housed in groups of five. All animals were kept in a temperature-controlled (20-22° C.) environment with a 12-hour light-dark cycle (lights on at 7 a.m.). Separate mice were used for testing each drug dose in the in vivo behavioral procedures. The mice were maintained on a […] light: dark cycle, and received food and water ad libitum. Brain tissue for binding studies was obtained from male Sprague-Dawley rats (150-200 g) purchased from Harlan Laboratories (Dublin, Va.).
(§2) Measurement of spontaneous activity in mice occurred in standard activity chambers interfaced with a Digiscan Animal Activity Monitor (Omnitech Electronics, Inc., Columbus, Ohio). A standard tail-flick apparatus (described by Dewey et al., 1970) and a digital thermometer (Fisher Scientific, Pittsburgh, Pa.) were used to measure antinociception and rectal temperature, respectively.
(§3) All drugs were administered to the mice intravenously (i.v.) in the tail vein at a volume of 0.1 ml/10 g.
(§4) Maximum latency of 10 sec was used.

[5] = test system: mice; experiment: Spontaneous (locomotor) activity in mice, compound alone (agonism test); assay type: in vivo; details: for change in vivo at 3 mg/kg: at 3 mg/kg i.v.; for inhibition in vivo at 30 mg/kg: read-out: Max % inhibit of spontaneous locomotor activity, Compound Alone; for stimulation of locomotor activity: compound alone, dose not given (see Table 5)
Procedure: as §1, §2, §3, §4

[6] = test system: mice; experiment: Tail-flick antinociception in mice, compound alone (agonism test); assay type: in vivo; details: Mus musculus, iv
Procedure: as §1, §2, §3, §4

[7] = target: CB1 receptor (Rattus norvegicus, UniProt P20272); experiment: biochemical; assay type: binding; details: for Ki: 1 nM [3H] CP 55,940, rat whole brain P2 membranes, 30° C. for 1 hr
Sequence of CB1 receptor (P20272 whole entry): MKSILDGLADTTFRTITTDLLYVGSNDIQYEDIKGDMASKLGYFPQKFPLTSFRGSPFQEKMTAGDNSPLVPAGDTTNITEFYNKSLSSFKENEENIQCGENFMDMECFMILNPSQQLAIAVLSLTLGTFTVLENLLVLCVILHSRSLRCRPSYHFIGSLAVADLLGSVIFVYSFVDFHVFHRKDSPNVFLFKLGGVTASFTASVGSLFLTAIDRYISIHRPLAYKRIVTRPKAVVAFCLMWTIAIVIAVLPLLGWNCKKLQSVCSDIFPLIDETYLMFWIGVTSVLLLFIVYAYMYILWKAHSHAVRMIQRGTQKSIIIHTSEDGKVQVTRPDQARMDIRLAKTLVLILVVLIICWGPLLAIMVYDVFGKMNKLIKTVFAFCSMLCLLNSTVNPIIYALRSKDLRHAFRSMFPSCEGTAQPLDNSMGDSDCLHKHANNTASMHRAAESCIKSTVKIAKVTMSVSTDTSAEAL
Procedure: as §1
All assays, as described briefly below, were performed in triplicate, and the results represent the combined data from three to six individual experiments. Following decapitation and rapid removal of the brain, whole brain was homogenized and centrifuged. The resulting pellet was termed P1. The supernatant was saved and combined with the two subsequent supernatants obtained from washing of the P1 pellet. The combined supernatant fractions were centrifuged, resulting in the P2 pellet. After further incubation and centrifuging, this pellet was resuspended in assay buffer to a protein concentration of approximately 2 mg/ml. The membrane preparation was quickly frozen in a bath solution of dry ice and 2-methylbutane (Sigma Chemical Co., St. Louis, Mo.), then stored at −80° C. for no more than 2 weeks. […] Binding was initiated by the addition of 150 μg of P2 membrane to test tubes containing 1 nM of [3H] […] Following incubation at 30° C. for 1 hr, binding was terminated by addition of ice-cold buffer and vacuum filtration through pretreated filters in a 12-well sampling manifold (Millipore, Bedford, Mass.). After washing, filters were placed into plastic scintillation vials (Packard, Downer Grove, Ill.) and shaken. The quantity of radioactivity present was determined by liquid scintillation spectrometry.

[8] = test system: mice; experiment: Spontaneous activity in mice, compound in combination with 3 mg/kg Δ^9-THC (antagonism test); assay type: in vivo; details: for SA: maximum % antagonism of 3 mg/kg Δ^9-THC: analog 10 min before Δ^9-THC
Procedure: as §1, §2, §3, §4

[9] = test system: mice; experiment: Antagonism tests with 3 mg/kg Δ^9-THC, stated across the measures (locomotor, antinociception, hypothermia)
[10] = test system: mice; experiment: Agonism tests in mice, stated across the triad (spontaneous activity, tail flick, rectal temperature); details: compound alone, i.v. doses up to 30 mg/kg
[11] = test system: mice; experiment: Rectal temperature in mice, compound in combination with 3 mg/kg Δ^9-THC (antagonism test); assay type: in vivo
Procedure: as §1, §2, §3, §4

[12] = test system: mice; experiment: Tail-flick antinociception in mice, compound in combination with 3 mg/kg Δ^9-THC (antagonism test); assay type: in vivo
Procedure: as §1, §2, §3, §4

[13] = read-out: RT: > dose, 50% activity not achieved at this highest dose tested
[14] = Mus musculus, iv, mice, i.v., read-out: SA: > dose, 50% activity not achieved at this highest dose tested
[15] = read-out: TF: > dose, 50% activity not achieved at this highest dose tested
[16] = Mus musculus, iv, read-out: Max stim of spontaneous locomotor activity, Compound Alone
[17] = Mus musculus, iv, at 30 mg/kg i.v.
[18] = at the dose(s) [mg/kg] given in parentheses in the cell
[19] = 0.5 h, i.v., 30 min post-injection, 95% confidence limits in parentheses, read-out: RT (rectal temperature) ED50
[20] = Mus musculus, iv, mice, i.v., 95% confidence limits in parentheses, * = estimated ED50, dose-effect curve not linear, read-out: SA (suppression of spontaneous activity) ED50
[21] = 20 min, i.v., 20 min post-injection, 95% confidence limits in parentheses, * = estimated ED50, dose-effect curve not linear, read-out: TF (tail flick, % MPE) ED50

## CCCCCc1cc(O)c2c(c1)OC(C)(C)[C@@H]1CCC(C)=C[C@@H]21 [Δ^9-THC, Δ^9-tetrahydrocannabinol]
[1]; from Wiley et al., 1998
  TF (tail flick, % MPE) ED50: 2.7 µmol/kg
[2]; from Wiley et al., 1998
  SA (suppression of spontaneous activity) ED50: 0.92 µmol/kg
[3]; from Wiley et al., 1998
  RT (rectal temperature) ED50: 2.5 µmol/kg

## CCC(C)c1ccc(-n2nc(C(=O)NN3CCCCC3)c(C)c2-c2ccc(Cl)cc2)cc1 (stereo not drawn) [Compound O-1253]
[4]; [13]
  ED50: > 30 mg/kg
[5]; Mus musculus, iv, at 30 mg/kg i.v., read-out: Max stim of spontaneous locomotor activity, Compound Alone
  change in vivo at 30 mg/kg: 73%
[5]; [14]
  ED50: > 30 mg/kg
[5]; doses in mg/kg
  Max % inhibit of spontaneous locomotor activity, Compound Alone (in words: stimulation instead of inhibition): stim at 1, 3, 10 & 30
[6]; [15]
  ED50: > 30 mg/kg
[7]; Ki (nM)
  Ki: 47 ± 2 nM
[7]; compared to SR 141716A
  CB1 binding affinity, fold less than SR 141716A: 8 fold
[8]; at 0.1 mg/kg i.v.
  Max % inhibit of spontaneous locomotor activity, Compound with 3 mg/kg Δ^9-THC: 89% (0.1)
[8]; at 1 mg/kg i.v.
  SA: maximum % antagonism of 3 mg/kg Δ^9-THC: 97% (1)
[8]; at 10 mg/kg i.v.
  Max stim of spontaneous locomotor activity, Compound with 3 mg/kg Δ^9-THC: 50% (10)
[9]; 3 mg/kg Δ^9-THC i.v.
  antagonism of the antinociceptive and hypothermic effects of Δ^9-THC (in words): full, dose-dependent antagonism

## CCCCCC(=O)c1nn(-c2ccc(Cl)cc2Cl)c(-c2ccc(Cl)cc2)c1C [Compound O-1271]
[10]
  in vivo cannabinoid agonist activity (in words): eliminated in vivo cannabimimetic activity; also recorded: did not have agonist properties
[4]; [13]
  ED50: > 30 mg/kg
[5]; [16]
  change in vivo at 3 mg/kg: 54%
[5]; [17]
  inhibition in vivo at 30 mg/kg: 7%
[5]; [14]
  ED50: > 30 mg/kg
[5]
  stimulation of locomotor activity: 54%
[11]; at 3 mg/kg i.v.
  RT: maximum % antagonism of 3 mg/kg Δ^9-THC: 36% (3)
[12]; at 10 mg/kg i.v.
  % MPE: maximum % antagonism of 3 mg/kg Δ^9-THC: 65% (10)
[6]; [15]
  ED50: > 30 mg/kg
[7]; Ki (nM)
  Ki: 82 ± 10 nM
[8]; at 3 mg/kg i.v.
  Max % inhibit of spontaneous locomotor activity, Compound with 3 mg/kg Δ^9-THC: 58% (3)
[8]; at 10 mg/kg i.v.
  SA: maximum % antagonism of 3 mg/kg Δ^9-THC: 77% (10)
[8]; [18]
  Max stim of spontaneous locomotor activity, Compound with 3 mg/kg Δ^9-THC (in words): None (3 & 10)
[9]; in combination with 3 mg/kg Δ^9-THC i.v.
  average % antagonism across the three measures: 59%

## CCCCCCCNC(=O)c1nn(-c2ccc(Cl)cc2Cl)c(-c2ccc(Cl)cc2)c1C [Compound O-1270, N-(n-heptyl)-5-(4-chlorophenyl)-1-(2,4-dichlorophenyl)-4-methyl-1H-pyrazole-3-carboxamide]
[10]
  in vivo cannabinoid agonist activity (in words): agonist activity
[4]; [19]
  ED50: 12 µmol/kg
[5]; [16]
  change in vivo at 3 mg/kg: 29%
[5]; [17]
  inhibition in vivo at 30 mg/kg: 80%
[5]; [20]
  ED50: 27 µmol/kg
[5]
  stimulation of locomotor activity: 29%
[11]; at 1 mg/kg i.v.
  RT: maximum % antagonism of 3 mg/kg Δ^9-THC: 26% (1)
[12]; at 3 mg/kg i.v.
  % MPE: maximum % antagonism of 3 mg/kg Δ^9-THC: 37% (3)
[6]; [21]
  ED50: 20 µmol/kg
[7]; Ki (nM)
  Ki: 48 ± 12 nM
[8]; at 10 mg/kg i.v.
  Max % inhibit of spontaneous locomotor activity, Compound with 3 mg/kg Δ^9-THC: 87% (10)
[8]; [18]
  Max stim of spontaneous locomotor activity, Compound with 3 mg/kg Δ^9-THC (in words): None (10)
  SA: maximum % antagonism of 3 mg/kg Δ^9-THC (in words): None (10)

## Cc1c(C(=O)NN2CCCCC2)nn(-c2ccc(Cl)cc2Cl)c1-c1ccc(Cl)cc1 [SR141716A, N-(piperidin-1-yl)-5-(4-chlorophenyl)-1-(2,4-dichlorophenyl)-4-methyl-1H-pyrazole-3-carboxamide hydrochloride, reference compound]
[1]; from Compton et al., 1996
  TF: > dose, 50% activity not achieved at this highest dose tested: >30^c mg/kg
[2]; from Compton et al., 1996
  SA: > dose, 50% activity not achieved at this highest dose tested: >30^c mg/kg
[12]; at 0.1 mg/kg i.v.
  % MPE: maximum % antagonism of 3 mg/kg Δ^9-THC: 96% (0.1)
[8]; at 3 mg/kg i.v.
  SA: maximum % antagonism of 3 mg/kg Δ^9-THC: 100% (3)
[3]; from Compton et al., 1996
  RT: > dose, 50% activity not achieved at this highest dose tested: >30^c mg/kg
[9]; 3 mg/kg Δ^9-THC i.v.
  antagonism of locomotor suppressant, antinociceptive and hypothermic effects of Δ^9-THC (in words): fully antagonized

## CCCCCNC(=O)c1nn(-c2ccc(Cl)cc2Cl)c(-c2ccc(Cl)cc2)c1C [Compound O-1269, N-(n-pentyl)-5-(4-chlorophenyl)-1-(2,4-dichlorophenyl)-4-methyl-1H-pyrazole-3-carboxamide]
[10]
  in vivo cannabinoid agonist activity (in words): agonist activity
[4]; [19]
  ED50: 11 µmol/kg
[5]; Mus musculus, iv, at 1 mg/kg i.v., read-out: Max stim of spontaneous locomotor activity, Compound Alone
  change in vivo at 1 mg/kg: 7%
[5]; [17]
  inhibition in vivo at 30 mg/kg: 87%
[5]; [20]
  ED50: 11 µmol/kg
[11]; at 1 mg/kg i.v.
  RT: maximum % antagonism of 3 mg/kg Δ^9-THC: 43% (1)
[12]; at 3 mg/kg i.v.
  % MPE: maximum % antagonism of 3 mg/kg Δ^9-THC: 66% (3)
[6]; [21]
  ED50: 21 µmol/kg
[7]; Ki (nM)
  Ki: 32 ± 5 nM
[8]; at 3 mg/kg i.v.
  SA: maximum % antagonism of 3 mg/kg Δ^9-THC: 38% (3)
[8]; at 10 mg/kg i.v.
  Max % inhibit of spontaneous locomotor activity, Compound with 3 mg/kg Δ^9-THC: 91% (10)
[8]; [18]
  Max stim of spontaneous locomotor activity, Compound with 3 mg/kg Δ^9-THC (in words): None (1, 3 & 10)

## CCCCCCCC(=O)c1nn(-c2ccc(Cl)cc2Cl)c(-c2ccc(Cl)cc2)c1C [Compound O-1272]
[10]
  in vivo cannabinoid agonist activity (in words): eliminated in vivo cannabimimetic activity
[4]; i.v., at 30 mg/kg
  RT: maximal effect produced by the analog (change in rectal temperature): −3 (30)^# ° C.
[5]; [16]
  change in vivo at 3 mg/kg: 17%
[5]; [17]
  inhibition in vivo at 30 mg/kg: 54%
[5]; mice, i.v., at 30 mg/kg
  SA: maximal effect produced by the analog: 54% (30)^#
[6]; [15]
  ED50: > 30 mg/kg
[7]; read-out: Ki
  Ki: 221 ± 36 nM
